Test results: patent US5827562A, “Sweetener salts” (Holland Sweetener Company V.o.F., priority 1995, dated 1998)
Several values for one entry are separate records, joined by “and”; a condition that tells them apart may be missing. Equal entries are not always repeated. Structures can show the parent of a compound that is named as a salt. Where two headings read alike, the source gives them in different places. Peptide text beside a SMILES is read from it.

Experiments:
[1] = Thermal stability test: open dish in thermostatted oven, decomposition products (DKP, AP) by hplc; format: physicochemical; details: for DKP content: initial content, relative to dry product
Procedure: d. Thermal stability tests were conducted by allowing samples of a relevant product to stand for the indicated times in an open dish placed in a thermostatted oven at the relevant temperature, and to determine, via hplc, the concentrations of possible decomposition products such as, in the case of analysis of aspartame salts, diketopiperazine (DKP) and aspartyl-phenylalanine (AP) in the initial and the final sample.
(§1) A number of the products obtained in the above-mentioned experiments and comparative experiments were subjected to further analysis of characterization. The following values were determined: (a) thermal stability (at 70° C. and/or at 120° C.) and (b) dissolution rate. By way of comparison the same was done for a number of reference substances. As regards the thermal stability of the APM containing substances, attention was paid in particular to the increase in the diketopiperazine decomposition product (DKP) in wt.% relative to the dry product.

[2] = Dissolution rate, spectrophotometric dissolution curve in pH 5.0 buffer; format: physicochemical; details: 23° C.
Procedure: c. The dissolution rate was found through spectrophotometric determination of the dissolution curve, by introducing 0.1 wt.% of the product (or a screen fraction thereof at 23° C. into a pH 5.0 buffer (Merck titrisol, pH 5.0, in 1 liter of Milli-Q water) whilst stirring continuously.
as §1, with “product. It was also established that the salts included in the table are not hygroscopic.” for “product.”

[3] = Moisture content, Karl-Fischer water determination; format: physicochemical; details: dried product
Procedure: b. The moisture content of the products obtained was determined by means of the Karl-Fischer water determination.

Solubility in water = format: physicochemical; details: aqueous reaction medium
[4] = usual moisture content of the individual component; cited from earlier work
[5] = general statement, aspartame or its derivatives; cited from earlier work

COC(=O)[C@H](Cc1ccccc1)NC(=O)[C@@H](N)CC(=O)O.O=C1NS(=O)(=O)c2ccccc21 [exp. 1a., 1:1 salt of APM and SacH] (H-Asp-Phe-OMe)
Increase in DKP content ([1]; 1 hour, 120° C.): 0 wt. %
Increase in DKP content ([1]; 70 hours, 70° C.): 0 wt. %
DKP content [1]: 0.01 wt. %
Dissolution rate ([2]; 0.1 wt.% product, stirring): 1 min
moisture content [3]: 0.03%
moisture content ([3]; table 1): 0.03 wt. %

COC(=O)[C@H](Cc1ccccc1)NC(=O)[C@@H](N)CC(=O)O [exp. 1b., 1:1 salt of APM and CycH] (H-Asp-Phe-OMe)
Increase in DKP content ([1]; 1 hour, 120° C.): 0.14 wt. %
DKP content [1]: 0.18 wt. %
moisture content [3]: 0.16%
moisture content ([3]; table 1): 0.16 wt. %
solubility of the sweetening salt (Solubility in water): high solubility

COC(=O)[C@H](Cc1ccccc1)NC(=O)[C@@H](N)CC(=O)O.O=C1NS(=O)(=O)c2ccccc21 [comp. exp. 1B, 1:1 salt of APM and SacH] (H-Asp-Phe-OMe)
Increase in DKP content ([1]; 70 hours, 70° C.): 0 wt. %
DKP content [1]: 0.21 wt. %

O=S(=O)(O)NC1CCCCC1 [cyclamate-Ca]
moisture content [4]: up to 9%

CC1=CC(=O)NS(=O)(=O)O1.COC(=O)[C@H](Cc1ccccc1)NC(=O)[C@@H](N)CC(=O)O [comp. exp. 1D, 1:1 salt of APM and acesulfamic acid] (H-Asp-Phe-OMe)
Increase in DKP content ([1]; 1 hour, 120° C.): 2.18 wt. %
thermal stability, observation in words ([1]; 1 hour, 120° C.): yellow/yellowbrown colour, with some degradation of the Ace part
Increase in DKP content ([1]; 70 hours, 70° C.): 0.52 wt. %
thermal stability, observation in words ([1]; 70 hours, 70° C.): pale yellow; with hplc some degradation of the Ace part
DKP content [1]: 0.32 wt. %
moisture content [3]: 0.89%
moisture content ([3]; table 1): 0.89 wt. %

CC1=CC(=O)NS(=O)(=O)O1.COC(=O)[C@H](Cc1ccccc1)NC(=O)[C@@H](N)CC(=O)O [Exp. 2l, 1:1 salt of APM and acesulfamic acid] (H-Asp-Phe-OMe)
moisture content [3]: 0.07%

COC(=O)C(Cc1ccccc1)NC(=O)C(N)CC(=O)O.O=C1NS(=O)(=O)c2ccccc21 (stereo not drawn) [Exp. 3b, 1:1 salt of APM and saccharinate] (H-Asp-Phe-OMe; configuration not given here)
moisture content [3]: 0.27%

CC1=CC(=O)NS(=O)(=O)O1.COC(=O)[C@H](Cc1ccccc1)NC(=O)[C@@H](N)CC(=O)O [Exp. 3a, 1:1 salt of APM and acesulfamic acid] (H-Asp-Phe-OMe)
moisture content [3]: 2.5%

CC1=CC(=O)NS(=O)(=O)O1 [AceH]
thermal stability, observation in words ([1]; 1 hour, 120° C.): yellow/orange colour; strong degradation; hydrogen sulphide odour

CC1=CC(=O)NS(=O)(=O)O1.COC(=O)[C@H](Cc1ccccc1)NC(=O)[C@@H](N)CC(=O)O [Exp. 5a., 1:1 salt of APM and acesulfamic acid] (H-Asp-Phe-OMe)
moisture content [3]: 0.09%

CC1=CC(=O)NS(=O)(=O)O1.COC(=O)[C@H](Cc1ccccc1)NC(=O)[C@@H](N)CC(=O)O [Experiment 6, 1:1 salt of APM and acesulfamic acid] (H-Asp-Phe-OMe)
moisture content [3]: 0.15%

CC1=CC(=O)NS(=O)(=O)O1.COC(=O)[C@H](Cc1ccccc1)NC(=O)[C@@H](N)CC(=O)O [exp. 2a., 1:1 salt of APM and acesulfamic acid] (H-Asp-Phe-OMe)
Increase in DKP content ([1]; 1 hour, 120° C.): 0 wt. %
Increase in DKP content ([1]; 70 hours, 70° C.): 0 wt. %
DKP content [1]: 0.01 wt. %
Dissolution rate ([2]; 0.1 wt.% product, stirring): 1 min
moisture content [3]: 0.11%
moisture content ([3]; table 1): 0.11 wt. %

CC1=CC(=O)NS(=O)(=O)O1.COC(=O)[C@H](Cc1ccccc1)NC(=O)[C@@H](N)CC(=O)O [exp. 4a., 1:1 salt of APM and acesulfamic acid] (H-Asp-Phe-OMe)
Increase in DKP content ([1]; 1 hour, 120° C.): 0 wt. %
thermal stability, observation in words ([1]; 1 hour, 120° C.): fully stable, white product
DKP content [1]: 0.01 wt. %
Dissolution rate ([2]; 0.1 wt.% product, stirring): 1 min
moisture content [3]: 0.12%
moisture content ([3]; table 1): 0.12 wt. %

CC1=CC(=O)NS(=O)(=O)O1.COC(=O)[C@H](Cc1ccccc1)NC(=O)[C@@H](N)CC(=O)O [Exp. 2k, 1:1 salt of APM and acesulfamic acid] (H-Asp-Phe-OMe)
moisture content [3]: 0.10%

COC(=O)[C@H](Cc1ccccc1)NC(=O)[C@@H](N)CC(=O)O.O=C1NS(=O)(=O)c2ccccc21 [comp. exp. 1A, 1:1 salt of APM and SacH] (H-Asp-Phe-OMe)
Increase in DKP content ([1]; 70 hours, 70° C.): 0 wt. %
DKP content [1]: 0.53 wt. %

O=C1NS(=O)(=O)c2ccccc21 [saccharin-Na, sodium 2,3-dihydro-3-oxobenzisosulfonazole]
moisture content [4]: up to 15%

COC(=O)C(Cc1ccccc1)NC(=O)C(N)CC(=O)O.O=C1NS(=O)(=O)c2ccccc21 (stereo not drawn) [Exp. 4b., 1:1 salt of APM and saccharin] (H-Asp-Phe-OMe; configuration not given here)
moisture content [3]: 0.04% and 0.05%

O=C1NS(=O)(=O)c2ccccc21 [SacH, 3-oxo-2,3-dihydro-1,2-benzisothiazole-1,1-dioxide]
thermal stability, observation in words ([1]; 1 hour, 120° C.): stable

CC1=CC(=O)NS(=O)(=O)O1.COC(=O)[C@H](Cc1ccccc1)NC(=O)[C@@H](N)CC(=O)O [exp. 4c., 1:1 salt of APM and acesulfamic acid] (H-Asp-Phe-OMe)
Increase in DKP content ([1]; 1 hour, 120° C.): 0 wt. %
thermal stability, observation in words ([1]; 1 hour, 120° C.): fully stable, white product
Increase in DKP content ([1]; 70 hours, 70° C.): 0 wt. %
DKP content [1]: 0.01 wt. %
Dissolution rate ([2]; 0.1 wt.% product, stirring): 1 min
moisture content [3]: 0.04%
moisture content ([3]; table 1): 0.04 wt. %

COC(=O)[C@H](Cc1ccccc1)NC(=O)[C@@H](N)CC(=O)O [APM powder] (H-Asp-Phe-OMe)
Increase in DKP content ([1]; 1 hour, 120° C.): 2.34 wt. %
Increase in DKP content ([1]; 70 hours, 70° C.): 0.20 wt. %
DKP content [1]: 0.04 wt. %
Dissolution rate ([2]; 0.1 wt.% product, stirring): 2 to 3 min
moisture content ([3]; table 1): 2.60 wt. %

COC(=O)[C@H](Cc1ccccc1)NC(=O)[C@@H](N)CC(=O)O [APM granulate, reference compound] (H-Asp-Phe-OMe)
Increase in DKP content ([1]; 1 hour, 120° C.): 2.09 wt. %
Increase in DKP content ([1]; 70 hours, 70° C.): 0.75 wt. %
DKP content [1]: 0.18 wt. %
Dissolution rate ([2]; 200-700 μm fraction, 0.1 wt.%): 7 min
Dissolution rate ([2]; <200 μm fraction, 0.1 wt.%): 4 min
moisture content ([3]; table 1): 2.30 wt. %

CC1=CC(=O)NS(=O)(=O)O1.COC(=O)[C@H](Cc1ccccc1)NC(=O)[C@@H](N)CC(=O)O [comp. exp. 1C, 1:1 salt of APM and acesulfamic acid] (H-Asp-Phe-OMe)
Increase in DKP content ([1]; 1 hour, 120° C.): 2.04 wt. %
thermal stability, observation in words ([1]; 1 hour, 120° C.): yellow/yellowbrown colour, with some degradation of the Ace part
Increase in DKP content ([1]; 70 hours, 70° C.): 1.27 wt. %
thermal stability, observation in words ([1]; 70 hours, 70° C.): pale yellow; with hplc some degradation of the Ace part
DKP content [1]: 0.35 wt. %
moisture content [3]: 0.76%
moisture content ([3]; table 1): 0.76 wt. %

COC(=O)[C@H](Cc1ccccc1)NC(=O)[C@@H](N)CC(=O)O [APM, Δ-L-aspartyl-L-phenylalanine methyl ester] (H-Asp-Phe-OMe)
thermal stability [5]: relatively unfavorable thermal stability
